pEC50: −log10 of the molar value.

Series [1] deals with dengue virus type 2. Kind of series: Antiviral activity against Dengue virus type 2 NGC infected in African green monkey Vero B cells assessed as reduction in virus yield. Format: functional, organism-based, Thailand/NGS-C/1944. Particulars: for pEC50: Dengue virus, Thailand/NGS-C/1944, Vero B, read-out: EC50; call rule not given here.
A short description of series [2]: Cytotoxicity in African green monkey Vero B cells assessed as reduction in cell viability by MTS assay. The series is classed as cell-based. Particulars: chlorocebus aethiops.
Series [3] can be described thus: Selectivity index, ratio of CC50 for African green monkey Vero B cells to EC50 for Dengue virus type 2 NGC infected in African green monkey Vero B cells. The note with it: read-out: Ratio CC50/EC50. Format: toxicity.
The test system of series [4] is Dengue virus. Description: Antiviral activity against Dengue virus. The series is classed as functional, organism-based.
Series [5] concerns Zika virus. Kind of series: Antiviral activity against Zika virus MR766 infected in African green monkey Vero E6 cells assessed as reduction in virus yield. Format: functional, organism-based. The note with it: MR766, Vero C1008.
Series [6] concerns Zika virus. Kind of series: Antiviral activity against Zika virus. Format: functional, organism-based.
The nature of series [7]: Selectivity index, ratio of CC50 for African green monkey Vero E6 cells to EC50 for Zika virus MR766 infected in African green monkey Vero E6 cells. Particulars: read-out: Ratio CC50/EC50. Format: toxicity, Vero C1008.
Series [8] in a line: Cytotoxicity in African green monkey Vero E6 cells assessed as reduction in cell viability by MTS assay. The series is classed as cell-based. Particulars: chlorocebus sabaeus, Vero E6 cells (Vero C1008).
Series [9] has as its system dengue virus type 2. Kind of series: Potency index, ratio of EC50 for RBV to EC50 for test compound for antiviral activity against Dengue virus type 2 NGC infected in African green monkey Vero B cells assessed as reduction in virus yield. The series is classed as functional, Thailand/NGS-C/1944.
Series [10] concerns Zika virus. Kind of series: Potency index, ratio of EC50 for 7DMA to EC50 for test compound for antiviral activity against Zika virus MR766 infected in African green monkey Vero E6 cells assessed as reduction in virus yield. Format: functional, Vero C1008.

As for `NS(=O)(=O)c1ccc(Nc2nc(N3CCOCC3)nc3[nH]cnc23)cc1`, the EC50 result in series [1] was “Not Active”. Moreover, the CC50 in series [2] is 373 µM.

For the molecule `OCCNc1nc(Nc2cccc(O)c2)c2nc[nH]c2n1`, the negative logarithm of the EC50 (pEC50) in [1] is 5.13. In addition, in series [3], the selectivity ratio was greater than 24. Besides, the cytotoxic concentration (CC50) in series [2] was greater than 175 µM.

In the case of `O=C1OCc2c(Nc3cccc(O)c3)nc(N3CCOCC3)nc21`, the negative-log EC50 (pEC50) in series [1] is less than 3.89. The cytotoxic concentration (CC50) in series [2] is greater than 128 µM.

Turning to `Oc1cccc(Nc2nc(N3CCOCC3)nc3[nH]cnc23)c1`, the negative-log EC50 (pEC50) in series [1] and in series [4] was 4.39 throughout. Further, in series [3], the selectivity ratio came out at 3. In addition, the CC50 in [2] was 122 µM.

As to `O=C1c2nc(N3CCOCC3)nc(Nc3cccc(O)c3)c2CN1CCc1ccccc1`, the negative logarithm of the EC50 (pEC50) in series [1] is 4.15. Besides, the CC50 in series [2] is greater than 116 µM.

As for `Oc1cccc(Nc2nc(NCCOc3ccccc3)nc3[nH]cnc23)c1`, the pEC50 in [1] was 5.00; in series [5], 4.78; in [6], 4.78; in series [4], 5.00. In addition, the results for the selectivity ratio in [3] and in series [7] were 6.9 and greater than 7.4, respectively. The CC50 in series [8] was greater than 124 µM; in [2], 69.4 µM.

Turning to `O=C(NCCOc1ccccc1)c1nc(N2CCOCC2)nc(Nc2cccc(O)c2)c1CO`, in series [1], the pEC50 is 4.21. Also, the selectivity ratio in series [3] was found to be 1.2. For the same molecule, the cytotoxic concentration (CC50) in [2] was 73.3 µM.

Turning to `O=C1c2nc(N3CCOCC3)nc(Nc3cccc(O)c3)c2CN1CCOc1ccccc1`, the negative-log EC50 (pEC50) in series [1] was 4.69. Also, the selectivity ratio in series [3] is greater than 4.9. Further, the CC50 in [2] was greater than 100 µM.

On to `COc1ccc(CN2Cc3c(Nc4cccc(O)c4)nc(N4CCOCC4)nc3C2=O)cc1`, for which the negative-log EC50 (pEC50) in series [1] is less than 3.95. Also, the CC50 in series [2] is greater than 112 µM.

For the molecule `CCCCCOCc1c(Nc2ccc(S(N)(=O)=O)cc2)nc(N2CCOCC2)nc1C(=O)NCCOc1ccccc1`, the entries for the “Ratio EC50” value in [9] and in series [10] were 6 and 3, respectively. The negative-log EC50 (pEC50) was 5.74 in series [1] and 5.69 in [5]. Also, the values for the selectivity ratio in [3] and in [7] were greater than 46 and greater than 41, respectively. Also, the CC50 in series [8] and in [2] was greater than 83.5 µM in each case.

As to `CCCCCOCc1c(Nc2cccc(O)c2)nc(N2CCOCC2)nc1C(=O)NCc1ccc(C(F)(F)F)cc1`, the pEC50 in [1] was 4.96; in series [5], 4.86. Moreover, the selectivity ratio is 3 in series [3] and 3.5 in series [7]. Also, the CC50 was determined as 48.2 µM in series [8] and 32.8 µM in [2].

For the molecule `O=C(NCCc1ccccc1)c1nc(N2CCOCC2)nc(Nc2cccc(O)c2)c1CO`, in series [1], the pEC50 is 4.68. The selectivity ratio in series [3] stood at 3.1. The 50% cytotoxic concentration (CC50) in series [2] was 64.5 µM.

With `NS(=O)(=O)c1ccc(Nc2nc(N3CCOCC3)nc(C(=O)NCc3ccccc3)c2CO)cc1`, the pEC50 in [1] is less than 4.00. The cytotoxic concentration (CC50) in [2] was greater than 100 µM.

With `COc1ccc(CNC(=O)c2nc(N3CCOCC3)nc(Nc3cccc(O)c3)c2CO)cc1`, in series [1], the pEC50 was less than 3.97. Besides, in series [2], the half-maximal cytotoxic concentration (CC50) was greater than 107 µM.

With `CCCCCOCc1c(Nc2ccc(S(N)(=O)=O)cc2)nc(N2CCOCC2)nc1C(=O)NCc1ccccc1`, the figures for the pEC50 in series [1] and in series [5] were 6.00 and less than 4.06, respectively. In addition, in series [3], the selectivity ratio is greater than 88. The CC50 in [8] and in series [2] was greater than 87.9 µM in each case.

Regarding `O=C(NCc1ccccc1)c1nc(N2CCOCC2)nc(Nc2cccc(O)c2)c1CO`, the pEC50 in series [1] is less than 3.94. Also, the CC50 in [2] was greater than 115 µM.

In the case of `CCCCCOCc1c(Nc2ccc(S(N)(=O)=O)cc2)nc(N2CCOCC2)nc1C(=O)NCc1ccc(OC)cc1`, in series [1], the pEC50 was less than 4.08. In series [2], the 50% cytotoxic concentration (CC50) was greater than 83.5 µM.

As to `COc1ccc(CN2Cc3c(Nc4ccc(S(N)(=O)=O)cc4)nc(N4CCOCC4)nc3C2=O)cc1`, in [1], the negative logarithm of the EC50 (pEC50) is less than 4.01. In addition, the half-maximal cytotoxic concentration (CC50) in series [2] was greater than 97.9 µM.

On to `CCCCCOCc1c(Nc2cccc(O)c2)nc(N2CCOCC2)nc1C(=O)NCc1ccccc1`, for which the values for the pEC50 in series [1] and in series [5] were 4.68 and 4.24, respectively. Besides, the selectivity ratio was 1.9 in series [3] and greater than 1.7 in series [7]. In addition, the CC50 was greater than 98.9 µM in [8] and 39.4 µM in series [2].

As to `NS(=O)(=O)c1ccc(Nc2nc(N3CCOCC3)nc3c2CN(CCOc2ccccc2)C3=O)cc1`, the pEC50 was 4.91 in [1] and less than 4.01 in series [5]. The selectivity ratio in series [3] is greater than 8. Also, the CC50 in series [8] and in series [2] was greater than 97.9 µM each time.

Consider `O=C1c2nc(N3CCOCC3)nc(Nc3cccc(O)c3)c2CN1Cc1ccccc1`, for which the pEC50 in [1] was 4.00. For the same molecule, in series [2], the CC50 is greater than 120 µM.

Regarding `NS(=O)(=O)c1ccc(Nc2nc(N3CCOCC3)nc3c2CN(Cc2ccccc2)C3=O)cc1`, the negative logarithm of the EC50 (pEC50) is 4.67 in [1] and less than 3.98 in series [5]. In addition, the selectivity ratio in [3] was greater than 4.8. Moreover, the CC50 in series [8] and in series [2] was greater than 104 µM each time.

For the molecule `NS(=O)(=O)c1ccc(Nc2nc(N3CCOCC3)nc3c2COC3=O)cc1`, the pEC50 in series [1] is less than 3.89. Also, the CC50 in series [2] was greater than 128 µM.

In the case of `C[C@@]1(O)[C@H](O)[C@@H](CO)O[C@H]1n1ccc2c(N)ncnc21` [BETA-2'-C-METHYL-7-DEAZA-ADENOSINE], the negative-log EC50 (pEC50) in [5] was 5.24; in series [6] it was 5.02. The selectivity ratio in series [7] was greater than 64. The CC50 in [8] was greater than 357 µM.

On to `NC(=O)c1ncn([C@@H]2O[C@H](CO)[C@@H](O)[C@H]2O)n1` [RIBAVIRIN], for which the pEC50 in series [1], in series [6] and in series [4] was 4.92 in each case. Further, the selectivity ratio in series [3] was greater than 34. The CC50 in [2] is greater than 409 µM.

Usually CC50 stands for the concentration that lowers cell viability or growth by half. In general, pEC50 refers to the negative decadic logarithm of the EC50, by convention in mol/L.

Values taken from ChEMBL document CHEMBL4339220, “Scaffold Morphing Approach To Expand the Toolbox of Broad-Spectrum Antivirals Blocking Dengue/Zika Replication” (ACS Med Chem Lett, 2019).
